Test results as given in US20230390274A1 (EPIRIUM BIO INC., priority 2020, published 2023).

Target: 15-PGDH/HPGD (Homo sapiens (Human), UniProt P15428)
Test: hPGDH inhibitor screening biochemical assay
Conditions: 10 nM 15-PGDH/HPGD, 15 μM PGE2, 0.25 mM NAD; read-out: hPGDH: Average IC50
Description: A hydroxyprostaglandin dehydrogenase inhibition screening biochemical assay can be performed to assess the synthesized inhibitors provided herein. Provided herein is an exemplary biochemical assay for hPGDH inhibitor screening.
The in vitro biochemical assay can be performed in white, 384 plates in total 20 μl reaction volume consisting of 10 nM of 15-PGDH/HPGD (R&D System #5660-DH), 15 μM Prostaglandin E2 (Sigma, Cat #P5640-10MG) and 0.25 mM β-Nicotinamide adenine dinucleotide sodium salt (Sigma, Cat #N0632-5G) made in reaction buffer (50 mM Tris-HCl, pH 7.5, 0.01% Tween 20) at 10-point dose response curve for test/tool compounds. Briefly, 5 μl (4×) of compounds solution and 5 μl (final concentration, 10 nM) of enzyme solution is added to white 384 well plates and incubated for 10 mins at 37° C. 5 μl (4×) of Prostaglandin E2 and 5 μl (4×) of β-Nicotinamide adenine dinucleotide sodium salt is added to the wells and incubated for 10 mins at rt. Fluorescence is recorded at ex/em=340 nm/485 nm. The percentage (%) inhibition of enzyme activity was determined relative to […] (1% DMSO) and IC50 was calculated using GraphPad prism software (four parameter-variable slope equation).

15-PGDH/HPGD, sequence (P15428 whole entry): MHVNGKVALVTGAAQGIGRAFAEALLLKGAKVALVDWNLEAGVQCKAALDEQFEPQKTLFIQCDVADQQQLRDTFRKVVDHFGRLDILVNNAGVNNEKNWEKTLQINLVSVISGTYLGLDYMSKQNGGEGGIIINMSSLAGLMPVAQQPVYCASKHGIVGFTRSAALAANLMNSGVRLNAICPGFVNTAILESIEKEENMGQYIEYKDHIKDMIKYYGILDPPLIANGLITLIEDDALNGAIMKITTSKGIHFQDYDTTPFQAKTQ

Structure (SMILES) | IC50 [µM]
COc1ccc(-n2c(NC(C)=O)nc3cc(C(=O)N4CCC(F)CC4)cnc32)cc1 [A-68] | ≥ 1
O=C(c1ccc(COc2ccccc2Cl)cc1)N1CCCCC1 [A-70] | < 0.1
COc1cc(C(=O)N2CCCCC2)ccc1COc1ccccc1Cl [A-71] | < 0.1
O=C(c1ccc(CSc2ccccc2Cl)cc1)N1CCCCC1 [A-72] | < 0.1
O=C(c1ccc(COc2ccccc2Cl)cn1)N1CCC(F)CC1 [A-76] | ≥ 1
O=C(c1ccc(COc2ccccc2-c2ccccn2)cc1)N1CCCCC1 [A-77] | < 0.1
O=C(c1ccc(COc2ccccc2-c2cnc[nH]2)cc1)N1CCCCC1 [A-78] | < 0.1
O=C(c1ccc(COc2ccccc2-c2cncs2)cc1)N1CCCCC1 [A-79] | < 0.1
COc1ccccc1C(=O)Nc1ccc(C(=O)N2CCCCC2)cc1 [A-80] | < 0.1
COc1ccccc1C(=O)N(C)c1ccc(C(=O)N2CCCCC2)cc1 [A-81] | ≥ 1
O=C(c1ccc2c(ccn2-c2cccc(Cl)c2)c1)N1CCCCC1 [A-87] | < 0.1
O=C(c1ccc2c(c1)c(Cl)cn2-c1cccc(Cl)c1)N1CCCCC1 [A-88] | < 0.1
O=C(c1ccc2c(-c3cccc(Cl)c3)c[nH]c2c1)N1CCCCC1 [A-89, (3-(3-chlorophenyl)-1H-indol-6-yl)(piperidin-1-yl)methanone] | < 0.1
Cn1cc(-c2cccc(Cl)c2)c2ccc(C(=O)N3CCCCC3)cc21 [A-90, (3-(3-chlorophenyl)-1-methyl-1H-indol-6-yl)(piperidin-1-yl)methanone] | < 0.1
O=C(c1ccc2c(c1)CCCN2c1cccc(Cl)c1)N1CCCCC1 [A-91, (1-(3-chlorophenyl)-1,2,3,4-tetrahydroquinolin-6-yl)(piperidin-1-yl)methanone] | < 0.1
O=C(c1ccc2c(cnn2-c2cccc(Cl)c2)c1)N1CCCCC1 [A-93, (1-(3-chlorophenyl)-1H-indazol-5-yl)(piperidin-1-yl)methanone] | < 0.1
O=C(c1ccn2c(-c3cccc(Cl)c3)cnc2c1)N1CCCCC1 [A-94, (3-(3-chlorophenyl)imidazo[1,2-a]pyridin-7-yl)(piperidin-1-yl)methanone] | < 0.1
O=C(c1ccc2c(c1)nnn2-c1cccc(Cl)c1)N1CCCCC1 [A-95, (1-(3-chlorophenyl)-1H-benzo[d][1,2,3]triazol-5-yl)(piperidin-1-yl)methanone] | < 0.1
O=C(c1cnc2c(-c3cccc(Cl)c3)cnn2c1)N1CCCCC1 [A-96, (3-(3-chlorophenyl)pyrazolo[1,5-a]pyrimidin-6-yl)(piperidin-1-yl)methanone] | < 0.1
Cc1c(C(=O)N2CCC(F)CC2)cnc2c1ccn2-c1cnccn1 [A-97, (4-fluoropiperidin-1-yl)(4-methyl-1-(pyrazin-2-yl)-1H-pyrrolo[2,3-b]pyridin-5-yl)methanone] | < 0.1
CS(=O)(=O)n1ccc2cc(C(=O)N3CCCCC3)cnc21 [A-110, (1-(methylsulfonyl)-1H-pyrrolo[2,3-b]pyridin-5-yl)(piperidin-1-yl)methanone] | ≥ 1
Cc1ccc(S(=O)(=O)n2ccc3cc(C(=O)N4CCCCC4)cnc32)cc1 [A-111, piperidin-1-yl(1-tosyl-1H-pyrrolo[2,3-b]pyridin-5-yl)methanone] | ≥ 1
O=C(c1cnc2c(ccn2-c2ccn3ccnc3c2)c1)N1CCCCC1 [A-112] | < 0.1
Cc1cncc(-n2ccc3cc(C(=O)N4CCCCC4)cnc32)c1 [A-113] | < 0.1
N#Cc1ccc(-n2ccc3cc(C(=O)N4CCC(F)CC4)cnc32)cc1 [A-114] | < 0.1
N#Cc1cccc(-n2ccc3cc(C(=O)N4CCC(F)CC4)cnc32)c1 [A-115] | < 0.1
CN(C)c1ccc(-n2ccc3cc(C(=O)N4CCCCC4)cnc32)cn1 [A-116] | < 0.1

Structure (SMILES) | IC50 [µM]
N#Cc1ccc(-n2ccc3cc(C(=O)N4CCCCC4)cnc32)cn1 [A-117] | < 0.1
N#Cc1ncc(-n2ccc3cc(C(=O)N4CCCCC4)cnc32)cn1 [A-118] | < 0.1
O=C(c1cnc2c(ccn2-c2ccc3[nH]ncc3c2)c1)N1CCCCC1 [A-119, (1-(1H-indazol-5-yl)-1H-pyrrolo[2,3-b]pyridin-5-yl)(piperidin-1-yl)methanone] | < 0.1
COc1ccc(Cn2ncc3cc(-n4ccc5cc(C(=O)N6CCCCC6)cnc54)ccc32)cc1 [A-120] | < 0.1
COc1ccc(Cn2cc3cc(-n4ccc5cc(C(=O)N6CCCCC6)cnc54)ccc3n2)cc1 [A-121] | < 0.1
NC(=O)c1ccc(-n2ccc3cc(C(=O)N4CCC(F)CC4)cnc32)cc1 [A-122] | < 0.1
NC(=O)c1cccc(-n2ccc3cc(C(=O)N4CCC(F)CC4)cnc32)c1 [A-123] | < 0.1
NC(=O)c1ccc(-n2ccc3cc(C(=O)N4CCCCC4)cnc32)cn1 [A-124] | < 0.1
NC(=O)c1ncc(-n2ccc3cc(C(=O)N4CCCCC4)cnc32)cn1 [A-125] | < 0.1
NC(=O)c1ccc(-n2ccc3cc(C(=O)N4CCC(F)(F)CC4)cnc32)cc1 [A-126] | < 0.1
O=C(c1cnc2c(ccn2-c2ccc(CO)cc2)c1)N1CCC(F)CC1 [A-127] | < 0.1
O=C(c1cnc2c(ccn2-c2cccc(CO)c2)c1)N1CCC(F)CC1 [A-128] | < 0.1
CC(C)(O)c1ccc(-n2ccc3cc(C(=O)N4CCCCC4)cnc32)cc1 [A-130] | < 0.1
COc1ccc(-n2ccc3cc(C(=O)N4CCC(c5ccccc5)CC4)cnc32)cc1 [A-134] | ≥ 1
COc1ccc(-n2ccc3cc(C(=O)N4CC(c5ccccc5)C4)cnc32)cc1 [A-135] | ≥ 1
COc1ccc(-n2ccc3cc(C(=O)N4CCN(CC(F)(F)F)CC4)cnc32)cc1 [A-136] | ≥ 1
COc1ccc(-n2ccc3cc(C(=O)N4C[C@H](C)C[C@H](C)C4)cnc32)cc1 [A-138, ((3R,5S)-3,5-dimethylpiperidin-1-yl)(1-(4-methoxyphenyl)-1H-pyrrolo[2,3-b]pyridin-5-yl)methanone] | < 0.1
COCCNC(=O)c1ccc(-n2ccc3cc(C(=O)N4CCCCC4)cnc32)cc1 [A-139] | < 0.1
CNC(=O)c1ccc(-n2ccc3cc(C(=O)N4CCCCC4)cnc32)cc1 [A-140] | < 0.1
CN(C)C(=O)c1ccc(-n2ccc3cc(C(=O)N4CCCCC4)cnc32)cc1 [A-141] | < 0.1
COc1ccc(-n2ccc3cc(C(=O)N4CCC(F)CC4)cnc32)cc1 [A-142] | < 0.1
COc1cccc(-n2ccc3cc(C(=O)N4CCCCC4)cnc32)c1 [A-143] | < 0.1
O=C(c1cnc2c(ccn2-c2cncc(Cl)c2)c1)N1CCCCC1 [A-144] | < 0.1
COc1cncc(-n2ccc3cc(C(=O)N4CCCCC4)cnc32)c1 [A-145] | < 0.1
COc1ccc(-n2ccc3cc(C(=O)N4CCCCC4)cnc32)cc1 [A-146] | < 0.1
N#Cc1ccc(-n2ccc3cc(C(=O)N4CCCCC4)cnc32)cc1 [A-147] | < 0.1
N#Cc1cccc(-n2ccc3cc(C(=O)N4CCCCC4)cnc32)c1 [A-148] | < 0.1

Continued, values first:

IC50 [µM] | Structure (SMILES)
< 0.1 | O=C(c1ccc2c(c1)ncn2-c1ccc(O)c(Cl)c1)N1CCCCC1 [A-39, (1-(3-chloro-4-hydroxyphenyl)-1H-benzo[d]imidazol-5-yl)(piperidin-1-yl)methanone]
< 0.1 | O=C(c1cnc2c(ccn2-c2cccc(Cl)c2)c1)N1CCCCC1 [A-40]
< 0.1 | O=C(c1cnc2c(ccn2-c2ccccn2)c1)N1CCCCC1 [A-41]
< 0.1 | O=C(c1cnc2c(ccn2-c2cccnc2)c1)N1CCCCC1 [A-42]
< 0.1 | O=C(c1cnc2c(ccn2-c2ccncn2)c1)N1CCCCC1 [A-43]
< 0.1 | O=C(c1cnc2c(ccn2-c2cncnc2)c1)N1CCCCC1 [A-44]
< 0.1 | O=C(c1cnc2c(ccn2-c2cnccn2)c1)N1CCCCC1 [A-45]
< 0.1 | O=C(c1cnc2c(ccn2-c2cscn2)c1)N1CCCCC1 [A-47]
< 0.1 | O=C(c1cnc2c(ccn2-c2cn[nH]c2)c1)N1CCCCC1 [A-48]
< 0.1 | Cn1cc(-n2ccc3cc(C(=O)N4CCCCC4)cnc32)cn1 [A-49]
< 0.1 | O=C(c1cnc2c(ccn2-c2cnccn2)c1)N1CCC(F)CC1 [A-50]
< 0.1 | O=C(c1cnc2c(ccn2-c2ccncn2)c1)N1CCC(F)CC1 [A-53]
< 0.1 | O=C(c1cnc2c(ccn2-c2ccc(O)nc2)c1)N1CCC(F)CC1 [A-55]
< 0.1 | O=C(c1cnc2c(ccn2-c2cccnc2)c1)N1CCC(F)CC1 [A-56]
< 0.1 | O=C(c1cnc2c(c1)c(Cl)cn2-c1cccnc1)N1CCC(F)CC1 [A-57]
< 0.1 | Cn1cc(-n2ccc3cc(C(=O)N4CCC(F)CC4)cnc32)cn1 [A-58]
< 0.1 | Cn1cc(-n2cc(Cl)c3cc(C(=O)N4CCC(F)CC4)cnc32)cn1 [A-59]
< 0.1 | O=C(c1cnc2c(c1)c(Cl)cn2-c1cncnc1)N1CCC(F)CC1 [A-60]
< 0.1 | COc1ccc(-n2ccc3cc(C(=O)N4CCC(F)CC4)cnc32)cn1 [A-61]
< 0.1 | O=C(c1cnc2c(c1)ncn2-c1cccc(Cl)c1)N1CCCCC1 [A-62]
< 0.1 | COc1ccc(-n2cnc3cc(C(=O)N4CCCCC4)cnc32)cc1 [A-63]
< 0.1 | COc1ccc(-n2cnc3cc(C(=O)N4CCC(F)CC4)cnc32)cc1 [A-64]
< 0.1 | COc1ccc(-n2cnc3cc(C(=O)N4CCC(F)(F)CC4)cnc32)cc1 [A-65]
< 0.1 | O=C(c1ccc(COc2ccccc2Br)cc1)N1CCCCC1 [A-69]
